Experimental findings from ChEMBL document CHEMBL4229504, “Incorporation of histone deacetylase inhibitory activity into the core of tamoxifen - A new hybrid design paradigm” (Bioorg Med Chem, 2018) are described below.

The source made the active and inactive calls. The rule behind the calls is not given here.

Series [1] has as its system MCF7. Kind of series: Cytotoxicity against ER positive human MCF7 cells treated every 2 days for 4 days measured post last dose by CellTiter-Glo luminescence assay. The series is classed as functional, cell-based.
In series [2] the test system is MCF7. Description: Cytotoxicity against ER positive human MCF7 cells treated every 2 days for 4 days measured after 7 days by CellTiter-Glo luminescence assay. The class given is functional, cell-based.
In series [3] the test system is MDA-MB-231. Description: Cytotoxicity against ER negative human MDA-MB-231 cells treated every 2 days for 4 days measured post last dose by CellTiter-Glo luminescence assay. The class given is functional, cell-based.
In series [4] the test system is MDA-MB-231. Description: Cytotoxicity against ER negative human MDA-MB-231 cells treated every 2 days for 4 days measured after 7 days by CellTiter-Glo luminescence assay. The series is classed as functional, cell-based.
For series [5], the system named is MCF-10A. Description: Cytotoxicity against ER negative human MCF10A cells treated every 2 days for 4 days measured post last dose by CellTiter-Glo luminescence assay. The class given is functional, cell-based. (Cellular ATP, detected with luciferase, serves as a proxy for viable cell number.)
Series [6] deals with MCF-10A. Description: Cytotoxicity against ER negative human MCF10A cells treated every 2 days for 4 days measured after 7 days by CellTiter-Glo luminescence assay. The class given is functional, cell-based.
In series [7] the target is Histone deacetylase 3 (Homo sapiens) (UniProt O15379). Description: Inhibition of HDAC3 in human MCF7 cells assessed as increase in acetylated histone H4 expression at 0.1 to 9 uM after 8 hrs by Western blot analysis. The class given is cell-based. For orientation: Immunoblotting shows a protein as a band on a membrane.
Series [8] has as its target T1, Protein deacetylase HDAC6 (Homo sapiens) (UniProt Q9UBN7).
T1 sequence (whole entry): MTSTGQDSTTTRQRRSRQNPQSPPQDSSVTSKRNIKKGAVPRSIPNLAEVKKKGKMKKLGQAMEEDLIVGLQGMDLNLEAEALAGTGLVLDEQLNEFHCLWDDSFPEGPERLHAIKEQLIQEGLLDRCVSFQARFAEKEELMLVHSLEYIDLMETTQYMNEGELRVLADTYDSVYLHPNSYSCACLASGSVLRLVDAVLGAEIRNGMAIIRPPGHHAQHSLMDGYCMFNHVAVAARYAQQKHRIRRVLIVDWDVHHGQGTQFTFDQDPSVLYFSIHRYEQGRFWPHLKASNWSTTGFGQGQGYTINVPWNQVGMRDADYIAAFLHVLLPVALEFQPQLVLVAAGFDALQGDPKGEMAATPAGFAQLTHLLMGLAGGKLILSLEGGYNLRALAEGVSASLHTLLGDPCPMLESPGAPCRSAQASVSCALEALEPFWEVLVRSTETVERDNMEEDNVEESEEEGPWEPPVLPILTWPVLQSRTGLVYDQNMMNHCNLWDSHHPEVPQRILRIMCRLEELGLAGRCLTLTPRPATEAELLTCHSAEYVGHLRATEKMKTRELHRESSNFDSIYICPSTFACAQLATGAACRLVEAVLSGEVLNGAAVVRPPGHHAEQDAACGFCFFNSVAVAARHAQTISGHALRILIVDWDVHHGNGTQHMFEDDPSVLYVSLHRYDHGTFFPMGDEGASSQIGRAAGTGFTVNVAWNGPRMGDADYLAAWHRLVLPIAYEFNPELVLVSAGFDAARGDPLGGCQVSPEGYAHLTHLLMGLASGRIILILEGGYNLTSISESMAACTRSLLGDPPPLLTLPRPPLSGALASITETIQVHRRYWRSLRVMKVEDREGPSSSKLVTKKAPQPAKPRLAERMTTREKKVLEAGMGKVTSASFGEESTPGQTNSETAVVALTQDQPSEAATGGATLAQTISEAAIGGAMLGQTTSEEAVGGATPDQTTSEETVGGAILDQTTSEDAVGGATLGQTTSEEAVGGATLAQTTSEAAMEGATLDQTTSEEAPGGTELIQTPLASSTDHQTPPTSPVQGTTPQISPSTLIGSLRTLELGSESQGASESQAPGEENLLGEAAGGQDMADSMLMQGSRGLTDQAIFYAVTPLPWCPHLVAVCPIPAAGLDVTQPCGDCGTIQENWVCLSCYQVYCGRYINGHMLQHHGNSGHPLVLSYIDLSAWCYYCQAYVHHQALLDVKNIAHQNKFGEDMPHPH
Kind of series: Inhibition of HDAC6 in human MCF7 cells assessed as increase in acetylated alpha-tubulin expression at 0.1 to 9 uM after 8 hrs by Western blot analysis. The class given is cell-based.

Series [9] has as its target T2, Histone deacetylase 6/3 (Homo sapiens) (UniProt O15379+Q9UBN7). Description: Inhibition of HDAC6/HDAC3 in human MCF7 cells assessed as induction of SREBF1 mRNA expression at 5 uM after 24 hrs by QIAzol reagent based RT-qPCR analysis. The class given is cell-based. In general terms: Real-time PCR tracks product formation cycle by cycle.
For series [10], the target named is T2, Histone deacetylase 6/3 (Homo sapiens). Description: Inhibition of HDAC6/HDAC3 in human MCF7 cells assessed as induction of CTGF mRNA expression at 5 uM after 24 hrs by QIAzol reagent based RT-qPCR analysis. The class given is cell-based.
Series [11] shares this target. Description: Inhibition of HDAC6/HDAC3 in human MCF7 cells assessed as induction of CDKN1A mRNA expression at 5 uM after 24 hrs by QIAzol reagent based RT-qPCR analysis. The series is classed as cell-based.
Series [12] deals with T3, Estrogen receptor (Homo sapiens, UniProt P03372).
T3 sequence (P03372 whole entry): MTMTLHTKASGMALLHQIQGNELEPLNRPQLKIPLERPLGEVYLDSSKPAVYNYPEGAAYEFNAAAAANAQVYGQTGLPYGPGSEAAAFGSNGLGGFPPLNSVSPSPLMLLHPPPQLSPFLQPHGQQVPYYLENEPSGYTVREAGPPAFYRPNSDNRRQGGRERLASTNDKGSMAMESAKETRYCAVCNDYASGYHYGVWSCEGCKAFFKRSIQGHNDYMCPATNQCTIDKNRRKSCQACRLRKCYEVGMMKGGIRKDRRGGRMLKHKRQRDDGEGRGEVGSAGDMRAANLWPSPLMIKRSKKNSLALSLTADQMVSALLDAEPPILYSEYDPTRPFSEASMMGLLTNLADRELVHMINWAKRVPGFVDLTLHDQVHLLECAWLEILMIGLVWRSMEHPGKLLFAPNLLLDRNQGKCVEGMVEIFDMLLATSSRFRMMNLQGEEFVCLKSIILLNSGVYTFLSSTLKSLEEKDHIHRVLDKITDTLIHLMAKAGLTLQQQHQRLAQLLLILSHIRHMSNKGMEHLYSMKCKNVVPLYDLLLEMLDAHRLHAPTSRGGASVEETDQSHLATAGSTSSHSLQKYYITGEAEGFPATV
Kind of series: Antagonist activity at recombinant human ERalpha expressed in HEK293 cells assessed as inhibition of estradiol-induced YFP-fused SRC1 coactivator recruitment measured after 1 hr in presence of Coelenterazine H by BRET assay. The class given is cell-based.

Series [13] concerns the target T3, Estrogen receptor. Description: Partial agonist activity at recombinant human ERalpha expressed in HEK293 cells assessed as YFP-fused SRC1 coactivator recruitment measured after 1 hr in presence of Coelenterazine H by BRET assay. The class given is cell-based. The conditions noted are these: hek293, 1 h.
In series [14] the target is T4, Protein deacetylase HDAC6 (Homo sapiens, UniProt Q9UBN7).
T4 sequence (Q9UBN7 whole entry): T1 sequence (whole entry)
Kind of series: Inhibition of full length recombinant human N-terminal GST-tagged HDAC6 expressed in Sf9 cells using Ac-Leu-Gly-Lys(Ac)-AMC as substrate measured after 30 mins by fluorescence assay.

The target of series [15] is Histone deacetylase 3/Nuclear receptor corepressor 2 (HDAC3/NCoR2) (Homo sapiens, UniProt O15379). Kind of series: Inhibition of human full length C-terminal His-tagged HDAC3/N-terminal GST-tagged human NCOR2 (395 to 489 residues) expressed in baculovirus expression system using Ac-Leu-Gly-Lys(Ac)-AMC as substrate measured after 30 mins by fluorescence assay.
Series [16] addresses T5, Estrogen receptor (Homo sapiens) (UniProt P03372).
T5 sequence (whole entry): T3 sequence (P03372 whole entry)
Description: Antagonist activity at recombinant human ERalpha expressed in HEK293 cells assessed as inhibition of estradiol-induced YFP-fused SRC1 coactivator recruitment at higher concentration measured after 1 hr in presence of Coelenterazine H by BRET assay. The series is classed as cell-based.

By IC50 is commonly meant the concentration needed to halve the response being measured.

Chain of Histone deacetylase 3/Nuclear receptor corepressor 2 (HDAC3/NCoR2) (O15379 whole entry, the tested form may be a part): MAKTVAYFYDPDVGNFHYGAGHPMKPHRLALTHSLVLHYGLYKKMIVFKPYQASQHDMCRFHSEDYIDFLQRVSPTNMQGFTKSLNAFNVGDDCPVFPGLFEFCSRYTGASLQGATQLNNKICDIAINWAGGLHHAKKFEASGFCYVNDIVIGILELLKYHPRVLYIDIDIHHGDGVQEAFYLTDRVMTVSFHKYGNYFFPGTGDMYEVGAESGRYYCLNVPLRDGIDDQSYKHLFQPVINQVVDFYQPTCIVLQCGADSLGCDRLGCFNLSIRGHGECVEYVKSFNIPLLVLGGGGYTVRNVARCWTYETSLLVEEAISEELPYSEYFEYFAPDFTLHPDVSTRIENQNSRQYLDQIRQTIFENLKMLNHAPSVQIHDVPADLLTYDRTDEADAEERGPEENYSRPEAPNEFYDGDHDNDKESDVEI
Chain of Histone deacetylase 3/Nuclear receptor corepressor 2 (HDAC3/NCoR2) (Q9Y618 whole entry, further chain, the tested form may be a part): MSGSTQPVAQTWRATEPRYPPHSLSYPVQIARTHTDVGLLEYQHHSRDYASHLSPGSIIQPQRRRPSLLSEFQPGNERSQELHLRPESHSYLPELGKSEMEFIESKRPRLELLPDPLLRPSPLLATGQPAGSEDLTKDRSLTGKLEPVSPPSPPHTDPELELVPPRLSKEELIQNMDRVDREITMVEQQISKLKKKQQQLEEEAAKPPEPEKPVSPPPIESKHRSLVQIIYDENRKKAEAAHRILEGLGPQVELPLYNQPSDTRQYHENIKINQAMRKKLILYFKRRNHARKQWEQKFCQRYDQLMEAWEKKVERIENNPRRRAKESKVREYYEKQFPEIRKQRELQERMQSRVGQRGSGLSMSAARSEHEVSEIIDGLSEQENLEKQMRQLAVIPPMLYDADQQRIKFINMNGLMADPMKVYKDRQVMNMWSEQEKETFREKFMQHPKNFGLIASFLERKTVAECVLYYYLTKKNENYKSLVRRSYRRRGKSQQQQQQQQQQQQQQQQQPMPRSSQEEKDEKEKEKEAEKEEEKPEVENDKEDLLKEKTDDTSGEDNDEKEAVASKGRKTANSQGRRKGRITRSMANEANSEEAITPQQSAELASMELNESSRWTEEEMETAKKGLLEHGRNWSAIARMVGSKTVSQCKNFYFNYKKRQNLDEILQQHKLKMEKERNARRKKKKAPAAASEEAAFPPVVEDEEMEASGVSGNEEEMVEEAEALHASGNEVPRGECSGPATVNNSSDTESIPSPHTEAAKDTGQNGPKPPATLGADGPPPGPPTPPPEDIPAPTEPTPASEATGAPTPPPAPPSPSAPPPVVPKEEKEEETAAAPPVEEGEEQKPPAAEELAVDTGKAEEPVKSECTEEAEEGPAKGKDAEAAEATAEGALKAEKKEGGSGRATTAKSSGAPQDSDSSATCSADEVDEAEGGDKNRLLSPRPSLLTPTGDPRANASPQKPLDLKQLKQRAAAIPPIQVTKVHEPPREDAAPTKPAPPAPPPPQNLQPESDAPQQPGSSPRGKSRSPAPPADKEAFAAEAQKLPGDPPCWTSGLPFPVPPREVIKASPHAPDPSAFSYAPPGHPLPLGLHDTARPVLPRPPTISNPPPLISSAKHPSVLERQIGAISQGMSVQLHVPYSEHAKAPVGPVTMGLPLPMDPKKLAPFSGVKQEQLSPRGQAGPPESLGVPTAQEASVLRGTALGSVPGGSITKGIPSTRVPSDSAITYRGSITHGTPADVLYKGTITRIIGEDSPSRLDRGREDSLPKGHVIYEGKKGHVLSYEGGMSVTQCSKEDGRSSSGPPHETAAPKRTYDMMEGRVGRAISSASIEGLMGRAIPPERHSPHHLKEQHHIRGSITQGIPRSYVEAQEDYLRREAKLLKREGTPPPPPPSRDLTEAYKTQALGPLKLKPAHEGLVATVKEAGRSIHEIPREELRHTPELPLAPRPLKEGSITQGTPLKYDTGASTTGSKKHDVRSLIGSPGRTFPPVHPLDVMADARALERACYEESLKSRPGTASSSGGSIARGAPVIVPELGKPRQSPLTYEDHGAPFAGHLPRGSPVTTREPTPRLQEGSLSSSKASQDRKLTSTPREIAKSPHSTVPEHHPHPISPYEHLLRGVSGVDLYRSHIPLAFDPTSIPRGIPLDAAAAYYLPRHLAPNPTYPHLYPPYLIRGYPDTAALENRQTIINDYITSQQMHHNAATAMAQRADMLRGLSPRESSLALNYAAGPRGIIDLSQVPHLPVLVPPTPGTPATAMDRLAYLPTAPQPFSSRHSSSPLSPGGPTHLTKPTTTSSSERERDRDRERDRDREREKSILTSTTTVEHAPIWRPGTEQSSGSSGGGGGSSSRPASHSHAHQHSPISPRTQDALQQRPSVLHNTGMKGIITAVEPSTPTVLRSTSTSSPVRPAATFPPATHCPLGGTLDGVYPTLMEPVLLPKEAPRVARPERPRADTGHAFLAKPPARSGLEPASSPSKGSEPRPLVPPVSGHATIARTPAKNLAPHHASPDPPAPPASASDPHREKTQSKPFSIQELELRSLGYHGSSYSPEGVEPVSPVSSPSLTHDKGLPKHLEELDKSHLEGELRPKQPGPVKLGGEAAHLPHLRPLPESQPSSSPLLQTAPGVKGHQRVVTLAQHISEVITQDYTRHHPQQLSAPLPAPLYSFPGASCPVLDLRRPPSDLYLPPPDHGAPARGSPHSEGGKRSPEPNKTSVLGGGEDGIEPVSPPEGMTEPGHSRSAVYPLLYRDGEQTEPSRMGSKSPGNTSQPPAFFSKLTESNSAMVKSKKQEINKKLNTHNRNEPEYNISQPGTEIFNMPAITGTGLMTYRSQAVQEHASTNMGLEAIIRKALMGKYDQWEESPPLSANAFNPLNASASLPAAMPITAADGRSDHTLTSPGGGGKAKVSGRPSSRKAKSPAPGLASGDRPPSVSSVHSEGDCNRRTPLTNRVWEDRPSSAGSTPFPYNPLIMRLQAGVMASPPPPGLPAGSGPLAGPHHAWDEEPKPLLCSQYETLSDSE
T2 sequence (O15379 whole entry, looked up, one chain of several): as the sequence (O15379 whole entry, the tested form may be a part) above
Chain of Histone deacetylase 3 (Homo sapiens) (O15379 whole entry): as the sequence (O15379 whole entry, the tested form may be a part) above

With `CCC(=C(c1ccc(O)cc1)c1ccc(OCCN(C)C)cc1)c1ccccc1`, the IC50 in the series with MCF7 [1] is 3.9 µM; in the series on MCF7 [2], 3.3 µM; in the series on MDA-MB-231 [3], 3.5 µM; in the series with MDA-MB-231 [4], 2.5 µM; in the series with MCF-10A [5] it was 4 µM; with MCF-10A [6] it was 4 µM. Moreover, the inhibition result in series [7], in series [8], in series [9], in series [10] and in [11] was “inactive” in each case.
`CC/C(=C(\c1ccc(O)cc1)c1ccc(OCCN(C)C)cc1)c1ccc(CCCCC(=O)NO)cc1`: the IC50 at Estrogen receptor [12] was 0.82 µM; in [14], 0.3 µM; in series [15], 0.734 µM; in the series on MCF7 [1] it was 1.3 µM; in the series on MCF7 [2], 0.79 µM; with MDA-MB-231 [3], 1.27 µM. In addition, the IC50 in the series on MDA-MB-231 [4] is 1.1 µM; in the series on MCF-10A [5] it was 2.17 µM; in the series with MCF-10A [6], 1.83 µM. In addition, the Activity entry at Estrogen receptor [13] is “Not Active”. The inhibition entry in series [9], in series [10] and in [11] was “Active” throughout.
On to `CC/C(=C(\c1ccc(O)cc1)c1ccc(OCCN(C)C)cc1)c1ccc(/C=C/C(=O)NO)cc1`, for which the Activity entry on Estrogen receptor [13] is “Not Active”. For the same compound, the IC50 in [14] was 0.519 µM; in series [15], 6.72 µM; in the series with MCF7 [1], 4.8 µM; in the series on MCF7 [2], 2.7 µM. Besides, the inhibition result in series [16] is “Active”.
In the case of `CC/C(=C(\c1ccc(O)cc1)c1ccc(OCCN(C)C)cc1)c1ccc(OCCCCC(=O)NO)cc1`, the concentration for half-maximal inhibition (IC50) at Estrogen receptor [12] was 0.8 µM; in [14] it was 1.78 µM; in series [15], 2.1 µM; with MCF7 [1], 2.9 µM; with MCF7 [2], 1.2 µM. The Activity entry on Estrogen receptor [13] was “Not Active”.
On to `CC/C(=C(\c1ccc(O)cc1)c1ccc(OCCN(C)C)cc1)c1ccc(C(=O)NO)cc1`, for which the figures for the concentration for half-maximal inhibition (IC50) (at Estrogen receptor [12]; in series [14]) were 1.12 µM and 71.9 µM, respectively. Besides, the Activity entry at Estrogen receptor [13] is “Not Active”.
On to `CC/C(=C(\c1ccc(O)cc1)c1ccc(OCCN(C)C)cc1)c1ccc(CCC(=O)NO)cc1`, for which the IC50 at Estrogen receptor [12] came out at 1.94 µM; in series [14] it was 0.484 µM; in series [15], 2.01 µM; in the series on MCF7 [1], 3.6 µM; with MCF7 [2], 1.8 µM. Besides, the Activity result at Estrogen receptor [13] is recorded as “Not Active”.
